Assay [1] has as its system HeLa. The assay is described as follows: mitotic arrest IC50 (G2/M DNA content, 20 h); higher = less potent. How it is done: (§1)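 HeLa cells were treated with a titration of each re-synthesised mitotic inhibitor. Mitotic arrest IC50 comes from a 20 h titration (190 pM to 10 uM) read as % G2/M by Vybrant DyeCycle Green cell cycle profiling on an Acumen cytometer. Cell viability IC50 comes from a 72 h titration (12.2 nM to 100 uM) read by CellTiter-Glo ATP luminescence, with curves fitted in CDD software. The maximal % of cells arrested in mitosis within the titration is also reported.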

Assay [2] deals with HeLa. Kind of assay: maximal percent of cells arrested in mitosis within titration; higher = stronger mitotic arrest. To be noted: 20 h. How it is done: as §1
In assay [3] the test system is HeLa. Kind of assay: cell viability IC50 (CellTiter-Glo, 72 h); higher = less potent. How it is done: as §1
A general note: In ATP-based viability assays light output follows the ATP content of the culture.

`CC(=O)O[C@H]1C(=O)[C@@]2(C)[C@H]([C@H](OC(=O)c3ccccc3)[C@]3(O)C[C@H](OC(=O)[C@H](O)[C@@H](NC(=O)c4ccccc4)c4ccccc4)C(C)=C1C3(C)C)[C@]1(OC(C)=O)CO[C@@H]1C[C@@H]2O` [Taxol]: in the assay with HeLa [1], the “mitotic arrest IC50” value is 0.0371 µM. This compound had a maximal percent with HeLa [2] of 74%. Further, the “cell viability IC50” value in the assay with HeLa [3] is 0.0273 µM.
The corresponding values for `O=c1[nH]c(/C=C/c2ccccc2)nc2ccccc12` are 1.35 µM, 61% and 1.16 µM.
The corresponding values for `COc1cc(-c2onc3ccc(Cl)cc23)cc(OC)c1OC` are 0.539 µM, 54.8% and 0.47 µM.
Taken in the same sequence, the figures for `COC(=O)Nc1nc2cc(C(=O)c3ccccc3)ccc2[nH]1` [Mebendazole] were 0.202 µM, 76.6% and 0.222 µM.
Turning to `O=C(CSc1nc2ccc([N+](=O)[O-])cc2s1)c1ccc(Cl)cc1`, the “mitotic arrest IC50” value with HeLa [1] worked out at 9.12 µM. This compound also showed a maximal percent in the assay with HeLa [2] of 61.7%. Also, in the assay on HeLa [3], the “cell viability IC50” value is 12.5 µM.
`O=c1[nH]c(/C=C/c2ccccc2F)nc2ccccc12`: the “mitotic arrest IC50” value in the assay on HeLa [1] came to 0.285 µM. For the same compound, the maximal percent in the assay with HeLa [2] came out at 49.9%. The “cell viability IC50” value in the assay on HeLa [3] worked out at 0.72 µM.
The corresponding values for `COC(=O)Nc1nc2cc(Sc3ccccc3)ccc2[nH]1` [Fenbendazole] are 0.279 µM, 62.5% and 0.389 µM.
The corresponding values for `O=C(O)c1ccccc1SC1CC(=O)N(c2ccc(Br)cc2)C1=O` (stereo not drawn) are 2.65 µM, 70.4% and 2.27 µM.
`CC(=O)Nc1ccc(Nc2nc(-c3c(C)nc4ccccn34)cs2)cc1`: the “mitotic arrest IC50” value in the assay on HeLa [1] is 0.0885 µM. In the assay on HeLa [2], the maximal percent is 65.3%. Also, the “cell viability IC50” value with HeLa [3] worked out at 0.121 µM.
In the case of `COC(=O)Nc1nc2cc(C(=O)c3cccs3)ccc2[nH]1` [Nocodazole], in the assay with HeLa [1], the “mitotic arrest IC50” value was 0.129 µM. In the assay on HeLa [2], this compound showed a maximal percent of 68.5%. In addition, the “cell viability IC50” value in the assay with HeLa [3] was found to be 0.0456 µM.
Taken in the same sequence, the figures for `CCN(CC)CCN1C(=O)C(=O)C(=C(O)c2ccccc2)C1c1ccccc1F` (stereo not drawn) were 4.78 µM, 55.8% and 6.63 µM.

Values taken from the supplement of paper PMC4237247.
